{
  "source": "patent US10857210B2",
  "about": "“Compositions and methods to promote wound healing” (Wayne State University, priority 2015, dated 2020)",
  "origin": "cited, not measured here",
  "key": {"[1]": {"tested_on": "Tet promoter", "settings": "relative to tetracycline"}},
  "data": [
    {"compound": "Cc1c2c(c(O)c3c(O)cccc13)C(=O)[C@]1(O)C(=O)C(C(N)=O)=C(O)[C@@H](N(C)C)[C@@H]1C2", "note": "[anhydrotetracycline]", "values": [
      {"measurement": "concentration that activates the Tet promoter, lower than with tetracycline", "setting": "[1]", "value": 2, "unit": "logs"},
      {"measurement": "solubility in water", "value": "fully soluble in water"}
    ]}
  ]
}
